Assay results reported in patent publication US7407968B2, “Compounds” (AstraZeneca AB, priority 2003, dated 2008).
Where two headings read alike, the source gives them in different places.

Columns and labels:
[1] = molecular target: T1, human CB2 receptor from BioSignal (hCB2) (Homo sapiens, UniProt P34972); test: hCB2 receptor binding (3H-CP55,940 displacement)
T1 construct: purchased BioSignal

[2] = molecular target: Human CB1 receptor from Receptor Biology (hCB1) (Homo sapiens, UniProt P21554); test: hCB1 receptor binding (3H-CP55,940 displacement)
[3] = hCB1 membranes, 3H-CP55,940 radioligand, Ki=IC50/(1+[rad]/Kd), read-out: hCB1 Ki

T1 sequence (P34972 whole entry): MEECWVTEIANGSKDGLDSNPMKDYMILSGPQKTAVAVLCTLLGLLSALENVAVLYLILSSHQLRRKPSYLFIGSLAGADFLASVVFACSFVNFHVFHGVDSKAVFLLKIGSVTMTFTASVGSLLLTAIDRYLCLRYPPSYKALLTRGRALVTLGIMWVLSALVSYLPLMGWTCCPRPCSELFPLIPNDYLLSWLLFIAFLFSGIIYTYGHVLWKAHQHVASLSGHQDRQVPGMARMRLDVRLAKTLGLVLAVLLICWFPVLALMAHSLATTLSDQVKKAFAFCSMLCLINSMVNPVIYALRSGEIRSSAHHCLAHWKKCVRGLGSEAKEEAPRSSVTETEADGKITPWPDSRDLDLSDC
Chain of Human CB1 receptor from Receptor Biology (hCB1) (P21554 whole entry): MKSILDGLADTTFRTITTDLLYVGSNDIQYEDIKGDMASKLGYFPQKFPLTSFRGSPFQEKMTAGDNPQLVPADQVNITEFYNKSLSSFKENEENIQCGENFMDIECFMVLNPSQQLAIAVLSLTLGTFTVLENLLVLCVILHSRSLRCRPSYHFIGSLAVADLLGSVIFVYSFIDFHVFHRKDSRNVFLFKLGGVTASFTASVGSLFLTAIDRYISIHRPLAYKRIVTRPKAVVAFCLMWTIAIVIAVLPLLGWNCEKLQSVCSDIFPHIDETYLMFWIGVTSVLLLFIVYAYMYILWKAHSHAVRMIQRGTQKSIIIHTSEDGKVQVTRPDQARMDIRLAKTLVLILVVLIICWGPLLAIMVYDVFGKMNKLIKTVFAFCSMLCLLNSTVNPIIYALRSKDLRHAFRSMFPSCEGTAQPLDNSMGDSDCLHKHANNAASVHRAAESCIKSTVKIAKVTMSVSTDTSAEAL

SMILES | Ki ([1]; hCB2 Ki (nM)) | Ki ([2]; hCB1 Ki (nM)) | Ki [2, 3] | Ki ([1]; hCB2 membranes, 3H-CP55,940 radioligand, Ki=IC50/(1+[rad]/Kd), read-out: hCB2 Ki) | Ki ([1]; read-out: hCB2 Ki)
CCOc1ccc(Cc2nc3cc(C(=O)N(CC(F)(F)F)CC(F)(F)F)ccc3n2C[C@H]2CCCO2)cc1 [Compound 14] | 14.8 nM | 5750 nM | – | – | –
CCOc1ccc(Cc2nc3cc(C(=O)N(CC(F)(F)F)CC(F)(F)F)ccc3n2Cc2ccsc2)nc1 [Compound 36] | 14 nM | – | 5750 nM | – | –
CCOc1ccc(Cc2nc3cc(C(=O)N(CC(F)(F)F)CC(F)(F)F)ccc3n2CC2CCOCC2)nc1 [Compound 20] | 11.2 nM | 2730 nM | – | – | –
CCOc1ccc(Cc2nc3cc(C(=O)N(CC(F)(F)F)CC(F)(F)F)ccc3n2CC2CCCCC2)nc1 [Compound 30] | 3.1 nM | 455 nM | – | – | –
CCOc1ccc(Cc2nc3cc(C(=O)N(CC(F)(F)F)CC(F)(F)F)ccc3n2Cc2ccco2)cc1 [Compound 4] | – | – | 4690 nM | – | –
CCOc1ccc(Cc2nc3cc(C(=O)N(CC(F)(F)F)CC(F)(F)F)ccc3n2CC2CCOCC2)cc1 [Compound 13] | 5.4 nM | 565 nM | – | – | –
CCOc1ccc(Cc2nc3cc(C(=O)N(CC(F)(F)F)CC(F)(F)F)ccc3n2CC2CCC2)cc1 [Compound 25] | 2 nM | 1560 nM | – | – | –
CCOc1ccc(Cc2nc3cc(C(=O)N(CC(F)(F)F)CC(F)(F)F)ccc3n2CC2CCC2)nc1 [Compound 26] | 6.6 nM | 5530 nM | – | – | –
CC(C)Oc1ccc(Cc2nc3cc(C(=O)N(CC(F)(F)F)CC(F)(F)F)ccc3n2CC2CCCCC2)nc1 [Compound 32] | 2.7 nM | – | 142 nM | – | –
CCOc1ccc(C(C)c2nc3cc(C(=O)N(CC(F)(F)F)CC(F)(F)F)ccc3n2Cc2ccncc2)cc1 (centres unmarked) [Compound 9] | – | – | 5570 nM | 165 nM | –
CCOc1ccc(Cc2nc3cc(C(=O)N(CC(F)(F)F)CC(F)(F)F)ccc3n2CC2CCCCC2)cc1 [Compound 3] | 0.8 nM | 84.8 nM | – | – | –
CCOc1ccc(Cc2nc3cc(C(=O)N(CC(F)(F)F)CC(F)(F)F)ccc3n2Cc2ccco2)cc1 [Compound 7] | – | – | 5530 nM | – | –
CCOc1ccc(Cc2nc3cc(C(=O)N(CC(F)(F)F)CC(F)(F)F)ccc3n2CCC(C)C)cc1 [Compound 1] | 3.1 nM | – | 2800 nM | – | –
CCOc1ccc(Cc2nc3cc(C(=O)N(CC(F)(F)F)CC(F)(F)F)ccc3n2CCC(C)C)nc1 [Compound 21] | 15.4 nM | 5430 nM | – | – | –
CCOc1ccc(Cc2nc3cc(C(=O)N(CC(F)(F)F)CC(F)(F)F)ccc3n2CC2CCCC2)nc1 [Compound 27] | 3.2 nM | 1360 nM | – | – | –
CCOc1ccc(Cc2nc3cc(C(=O)N(CC(F)(F)F)CC(F)(F)F)ccc3n2C[C@@H]2CCCO2)cc1 [Compound 15] | 9.6 nM | 5750 nM | – | – | –
CCOc1ccc(Cc2nc3cc(C(=O)N(CC(F)(F)F)CC(F)(F)F)ccc3n2CC2CC2)cc1 [Compound 2] | – | 5080 nM | – | – | 5.6 nM
CCOc1ccc(Cc2nc3cc(C(=O)N(CC(F)(F)F)CC(F)(F)F)ccc3n2Cc2ccncc2)cc1 [Compound 8] | 16.7 nM | – | 5350 nM | – | –
CCOc1ccc(Cc2nc3cc(C(=O)N(CC(F)(F)F)CC(F)(F)F)ccc3n2CC2CCCCO2)cc1 (centres unmarked) [Compound 16] | 3.3 nM | – | 1410 nM | – | –
CCOc1ccc(Cc2nc3cc(C(=O)N(CC(F)(F)F)CC(F)(F)F)ccc3n2Cc2ccoc2)nc1 [Compound 29] | 68.7 nM | – | 5810 nM | – | –
